Data taken from ChEMBL document CHEMBL2424515, “Identification of novel substrates and structure-activity relationship of cellular uptake mediated by human organic cation transporters 1 and 2” (J Med Chem, 2013).

Experiments:
[1] = molecular target: T1, OCT1 (SLC22A1) (Homo sapiens, UniProt O15245); test: Cellular uptake in human HEK293 cells assessed as human OCT1-mediated drug transport at 2.5 uM after 4 mins by LC-MS/MS analysis relative to passive uptake; assay type: ADME, cell-based; conditions: HEK293 cells expressing human OCT1, read-out: FC
T1 sequence (O15245 whole entry): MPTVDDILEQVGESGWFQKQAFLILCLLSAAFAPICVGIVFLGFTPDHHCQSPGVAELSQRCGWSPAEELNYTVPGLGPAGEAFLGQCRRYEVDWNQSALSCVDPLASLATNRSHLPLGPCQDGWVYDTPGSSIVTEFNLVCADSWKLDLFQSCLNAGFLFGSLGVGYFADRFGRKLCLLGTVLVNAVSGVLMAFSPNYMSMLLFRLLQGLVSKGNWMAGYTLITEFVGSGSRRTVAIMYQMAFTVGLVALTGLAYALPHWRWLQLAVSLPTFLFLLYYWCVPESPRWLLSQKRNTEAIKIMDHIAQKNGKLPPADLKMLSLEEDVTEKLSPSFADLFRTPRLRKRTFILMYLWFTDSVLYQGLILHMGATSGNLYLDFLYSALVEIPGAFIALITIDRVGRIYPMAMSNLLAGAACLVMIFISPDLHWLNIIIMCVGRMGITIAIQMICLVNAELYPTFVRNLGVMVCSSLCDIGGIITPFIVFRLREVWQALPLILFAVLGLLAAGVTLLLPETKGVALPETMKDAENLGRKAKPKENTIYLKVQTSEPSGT

[2] = molecular target: T2, OCT2 (SLC22A2) (Homo sapiens, UniProt O15244); test: Cellular uptake in human HEK293 cells assessed as human OCT2-mediated drug transport at 2.5 uM after 4 mins by LC-MS/MS analysis relative to passive uptake; assay type: ADME, cell-based; conditions: HEK293 cells expressing human OCT2, read-out: FC
T2 sequence (O15244 whole entry): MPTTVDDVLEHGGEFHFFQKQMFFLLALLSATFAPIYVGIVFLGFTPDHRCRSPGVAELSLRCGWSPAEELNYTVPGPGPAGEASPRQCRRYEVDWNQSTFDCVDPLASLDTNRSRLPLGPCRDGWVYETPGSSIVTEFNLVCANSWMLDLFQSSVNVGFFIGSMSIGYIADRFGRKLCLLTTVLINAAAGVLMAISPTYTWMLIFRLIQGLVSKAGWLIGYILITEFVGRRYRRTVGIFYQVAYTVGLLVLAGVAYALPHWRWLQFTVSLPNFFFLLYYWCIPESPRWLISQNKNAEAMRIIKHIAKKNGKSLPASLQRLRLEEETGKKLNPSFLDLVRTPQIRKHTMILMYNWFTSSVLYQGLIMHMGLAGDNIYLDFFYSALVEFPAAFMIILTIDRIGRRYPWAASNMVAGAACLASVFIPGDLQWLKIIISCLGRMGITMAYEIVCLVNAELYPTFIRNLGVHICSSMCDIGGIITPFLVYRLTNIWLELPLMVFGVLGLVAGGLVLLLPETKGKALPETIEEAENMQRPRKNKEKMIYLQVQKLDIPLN

[3] = molecular target: T3, Solute carrier family 22 member 2 (Homo sapiens, UniProt O15244); test: Cellular uptake in human HEK293 cells assessed as human OCT2-mediated drug transport at 2.5 uM after 4 mins by LC-MS/MS analysis; assay type: ADME, cell-based; conditions: hek293, 4 min
T3 sequence (O15244 whole entry): T2 sequence (O15244 whole entry)

[4] = molecular target: T4, Solute carrier family 22 member 1 (Homo sapiens, UniProt O15245); test: Cellular uptake in human HEK293 cells assessed as human OCT1-mediated drug transport at 2.5 uM after 4 mins by LC-MS/MS analysis; assay type: ADME, cell-based; conditions: hek293, 4 min
T4 sequence (O15245 whole entry): T1 sequence (O15245 whole entry)

[5] = substrate: CN/C(=N/CCSCc1nc[nH]c1C)NC#N; test: cells, lysate or membranes named
[6] = substrate: CC[N+](CC)(CC)CC; test: cells, lysate or membranes named

C[N+]1(C)[C@@H]2C[C@@H](OC(=O)C(O)(c3cccs3)c3cccs3)C[C@H]1[C@@H]1O[C@@H]12 [TIOTROPIUM]
uptake ratio at 4 min, 2.5 µM [1]: 75
uptake ratio at 4 min, 2.5 µM [2]: 39
Drug uptake [3]: 460 pmol/mg
Drug uptake [4]: 820 pmol/mg

C[N+]1(C)CCC(Oc2ccccc2-c2cc(C(N)=O)c(NC(N)=O)s2)C1 (racemic)
uptake ratio at 4 min, 2.5 µM [1]: 53
uptake ratio at 4 min, 2.5 µM [2]: 4.3
Drug uptake [3]: 46 pmol/mg
Drug uptake [4]: 903 pmol/mg

NCCOc1ccccc1-c1nc(C(N)=O)c(NC(N)=O)s1
uptake ratio at 4 min, 2.5 µM [1]: 13
uptake ratio at 4 min, 2.5 µM [2]: 1.3
Drug uptake [3]: 40 pmol/mg
Drug uptake [4]: 796 pmol/mg

CCC(NC(C)C)C(O)c1ccc(O)c2[nH]c(=O)ccc12 (centres undefined) [PROCATEROL]
uptake ratio at 4 min, 2.5 µM [1]: 11
uptake ratio at 4 min, 2.5 µM [2]: 1.9
Drug uptake [3]: 14 pmol/mg
Drug uptake [4]: 140 pmol/mg

NC(=O)Nc1sc(-c2ccc(OC3CCNC3)cc2)cc1C(N)=O (racemic)
uptake ratio at 4 min, 2.5 µM [1]: 73
uptake ratio at 4 min, 2.5 µM [2]: 1.4
Drug uptake [3]: 8.5 pmol/mg
Drug uptake [4]: 1493 pmol/mg

NC(=O)Nc1sc(-c2ccccc2OC2CNC2)cc1C(N)=O
uptake ratio at 4 min, 2.5 µM [1]: 11
uptake ratio at 4 min, 2.5 µM [2]: 2.2
Drug uptake [3]: 63 pmol/mg
Drug uptake [4]: 641 pmol/mg

CN/C(=N/CCSCc1nc[nH]c1C)NC#N [CIMETIDINE]
uptake ratio at 4 min, 2.5 µM [1]: 6.5
uptake ratio at 4 min, 2.5 µM [2]: 15
Drug uptake [3]: 270 pmol/mg
Drug uptake [4]: 65 pmol/mg

NC(=O)Nc1sc(-c2ccccc2O[C@@H]2CCNC2)cc1C(N)=O
uptake ratio at 4 min, 2.5 µM [1]: 15
uptake ratio at 4 min, 2.5 µM [2]: 1.1
Drug uptake [3]: 6.6 pmol/mg
Drug uptake [4]: 586 pmol/mg

N=C(N)NC(=O)c1nc(Cl)c(N)nc1N [AMILORIDE]
uptake ratio at 4 min, 2.5 µM [1]: 76
uptake ratio at 4 min, 2.5 µM [2]: 74
Drug uptake [3]: 1660 pmol/mg
Drug uptake [4]: 1430 pmol/mg

CNC(=C[N+](=O)[O-])NCCSCc1ccc(CN(C)C)o1 [RANITIDINE]
uptake ratio at 4 min, 2.5 µM [1]: 18
uptake ratio at 4 min, 2.5 µM [2]: 1.6
Drug uptake [3]: 22 pmol/mg
Drug uptake [4]: 600 pmol/mg

NC(=O)Nc1sc(-c2ccccc2O[C@H]2CCNC2)cc1C(N)=O
uptake ratio at 4 min, 2.5 µM [1]: 26
uptake ratio at 4 min, 2.5 µM [2]: 1.9
Drug uptake [3]: 37 pmol/mg
Drug uptake [4]: 1047 pmol/mg

N#Cc1ccc(OC2CCNC2)c(-c2cc(C(N)=O)c(NC(N)=O)s2)c1 (racemic)
uptake ratio at 4 min, 2.5 µM [1]: 39
uptake ratio at 4 min, 2.5 µM [2]: 1.6
Drug uptake [3]: 22 pmol/mg
Drug uptake [4]: 1653 pmol/mg

NCCCOc1ccccc1-c1nc(C(N)=O)c(NC(N)=O)s1
uptake ratio at 4 min, 2.5 µM [1]: 14
uptake ratio at 4 min, 2.5 µM [2]: 1.5
Drug uptake [3]: 23 pmol/mg
Drug uptake [4]: 739 pmol/mg

CNS(=O)(=O)Cc1ccc2[nH]cc(CCN(C)C)c2c1
uptake ratio at 4 min, 2.5 µM [1]: 15
uptake ratio at 4 min, 2.5 µM [2]: 3.3
Drug uptake [3]: 94 pmol/mg
Drug uptake [4]: 620 pmol/mg

CC(C)(C)NCC(O)c1ccc(O)c(CO)c1 (centres undefined) [ALBUTEROL]
uptake ratio at 4 min, 2.5 µM [1]: 11
uptake ratio at 4 min, 2.5 µM [2]: 15
Drug uptake [3]: 270 pmol/mg
Drug uptake [4]: 58 pmol/mg

NC(=O)Nc1sc(-c2ccccc2OC2CCNCC2)cc1C(N)=O
uptake ratio at 4 min, 2.5 µM [1]: 17
uptake ratio at 4 min, 2.5 µM [2]: 1.8
Drug uptake [3]: 35 pmol/mg
Drug uptake [4]: 821 pmol/mg

CC[N+](C)(CC)CCOC(=O)C(O)(c1ccccc1)C1CCCCC1 (centres undefined) [OXYPHENONIUM]
uptake ratio at 4 min, 2.5 µM [1]: 25
uptake ratio at 4 min, 2.5 µM [2]: 14
Drug uptake [3]: 230 pmol/mg
Drug uptake [4]: 640 pmol/mg

[H]/N=C(/N)N/C(=N/[H])NCCc1ccccc1 [PHENFORMIN]
uptake ratio at 4 min, 2.5 µM [1]: > 39
uptake ratio at 4 min, 2.5 µM [2]: > 35
Drug uptake [3]: 450 pmol/mg
Drug uptake [4]: 570 pmol/mg

O=C(NCCNCC(O)COc1ccc(O)cc1)N1CCOCC1 (centres undefined) [XAMOTEROL]
uptake ratio at 4 min, 2.5 µM [1]: 43
uptake ratio at 4 min, 2.5 µM [2]: 1.6
Drug uptake [3]: 5.2 pmol/mg
Drug uptake [4]: 230 pmol/mg

NC(=O)Nc1sc(-c2cccc(OC3CCNC3)c2)cc1C(N)=O (racemic)
uptake ratio at 4 min, 2.5 µM [1]: 68
uptake ratio at 4 min, 2.5 µM [2]: 1.6
Drug uptake [3]: 21 pmol/mg
Drug uptake [4]: 1352 pmol/mg

CN(C)C(=N)N=C(N)N [METFORMIN]
Drug uptake [3]: 110 pmol/mg
Drug uptake [4]: 5.4 pmol/mg

B1: Solute carrier family 22 member 2 (Homo sapiens) (protein)
chain: T2 sequence (O15244 whole entry)
Km [5]: 60 µM

B2: Solute carrier family 22 member 1 (Homo sapiens) (protein)
chain: T1 sequence (O15245 whole entry)
Km [6]: 140 µM
